This is an account of results in patent US11395798B2, “O/W type emulsion” (NOF CORPORATION, priority 2015, dated 2022).

The nature of data set [1]: particle size distribution by dynamic light scattering (Zetasizer Nano ZS). Type of data set: physicochemical. As to the method: The particle size distribution of the prepared emulsion was measured by dynamic light scattering using Zetasizer Nano ZS. The measurement conditions were 1 mM emulsion (40 μL) at 25° C. As a result, in all compositions, the volume median diameter was not more than 100 nm and, when a linear head was used (i.e., the formula (I) wherein X^a and X^b are each X^1), the particle size was not more than 50 nm. The drug recovery rate was not less than 85% (FIG. 1, Table 2).
EPC and Cholesterol were mixed to achieve 1000 nmol and a PEG lipid was added. Chloroform in an amount equal to that of the lipid ethanol solution was added and the mixture was dried under a nitrogen blow. PBS (1 mL) was added to the lipid membrane after drying and the mixture was stood for 10 min and sonicated by a bath-type sonicator for 3 min to give a particle suspension. The particle size distribution of the prepared particles was measured by dynamic light scattering in the same manner as in Example 1.
The particle size distribution of the produced emulsion solution was measured by dynamic light scattering similarly to Example 1. As a result, when DOPC was used, the volume median diameter was near 40 nm irrespective of pH.
An ethanol solution containing 500 nmol as a total of cationic B-2, DOPE, and Cholesterol was prepared, and a PEG lipid was added in the above-mentioned amount. Ethanol was added to make the total amount 200 μL, and the mixture was stood at ice temperature for 15 min. A similarly ice-cooled malic acid buffer (20 mM, pH 3.0, 0-1000 mM NaCl) (200 μL) was mixed within 3 sec under vortex. PBS (NISSUI) (3600 μL) was immediately added thereto. The mixture was subjected to ultrafiltration using Amicon Ultra (Millipore). The centrifugation conditions were 1000 G, 25° C. An operation including addition of 3200 μL of PBS after centrifugation for 10 min was repeated twice and the sample was concentrated to about 500 μL. The concentrate was diluted with PBS to a mass of 1000 mg to give a 0.5 mM (lipid concentration) emulsion. The particle size distribution of the produced emulsion solution was measured by dynamic light scattering similarly to Example 1.
The volume median diameter and the surface potential were measured using the dynamic light scattering (Zetasizer Nano; Malvern) in the same manner as in Example 1.
The average particle size of the produced particles was measured in the same manner as in Example 1 and the results are shown in Table 7.

For data set [2] the following is noted: water/octanol; cited from earlier work.
The mark [3] stands for this setting: O/W emulsion cationic lipid:DOPE:Cholesterol=3:4:3, 4-Methylumbelliferon 10 mol %, DMG-PEG2000 10 mol %, DSG-PEG2000 2.5 mol %.
[4] abbreviates: O/W emulsion cationic lipid:DOPE:Cholesterol=3:4:3, 4-Methylumbelliferon 10 mol %, DMG-PEG2000 10 mol %, DSG-PEG2000 2.5 mol %, 1 mM, 25° C.

As to `CCCCC/C=C\C/C=C\CCCCCCCC(=O)OCCCN(C)CCSSCCN(C)CCCOC(=O)CCCCCCC/C=C\C/C=C\CCCCC` [B-2-3], the PdI in data set [1] (setting [3]) is reported as 0.419. The same compound had a volume median diameter in data set [1] (setting [4]) of 34.3 nm.
Turning to `CCC(=O)O[C@@H]1CC(=O)O[C@H](C)C/C=C/C=C/[C@H](OC(C)=O)[C@H](C)C[C@H](CC=O)[C@H](O[C@@H]2O[C@H](C)[C@@H](O[C@H]3C[C@@](C)(OC(C)=O)[C@@H](OC(=O)CC)[C@H](C)O3)[C@H](N(C)C)[C@H]2O)[C@H]1OC` [midecamycin acetate], in data set [2], the “Log Pow” value is 5.58.
As for `Clc1ccccc1C(c1ccccc1)(c1ccccc1)n1ccnc1` [clotrimazole], the “Log Pow” value in data set [2] was 4.93.
As to `CCC(C)(Oc1ccc(C2(c3ccc(OC(C)(CC)C(=O)O)cc3)CCCCC2)cc1)C(=O)O` (stereo not shown) [clinofibrate], in data set [2], the “Log Pow” value is reported as 6.33.
Take `C[C@]12CC[C@@H]3c4ccc(OC(=O)c5ccccc5)cc4CC[C@H]3[C@@H]1CC[C@@H]2O` [estradiol benzoate]: in data set [2], the “Log Pow” value is given as 5.10.
As for `CC(C)=CCN1CCC2(C)c3cc(O)ccc3CC1C2C` (stereo not shown) [pentazocine], the “Log Pow” value in data set [2] is 4.15.
As for `CCCCCCCCCCCCCCCC(=O)OC[C@@H](NC(=O)C(Cl)Cl)[C@H](O)c1ccc([N+](=O)[O-])cc1` [chloramphenicol palmitate], the “Log Pow” value in data set [2] is 8.69.
For the compound `c1ccc(-c2ccc(C(c3ccccc3)n3ccnc3)cc2)cc1` (stereo not shown) [bifonazole], the “Log Pow” value in data set [2] is listed as 4.69.
Regarding `COC(=O)[C@H]1[C@H]2C[C@@H]3c4[nH]c5cc(OC)ccc5c4CCN3C[C@H]2C[C@@H](OC(=O)c2cc(OC)c(OC)c(OC)c2)[C@@H]1OC` [reserpine], the “Log Pow” value in data set [2] is given as 4.45.
Consider `CC(C(=O)O)c1ccc2c(c1)CC(=O)c1ccccc1S2` (stereo not shown) [zaltoprofen], for which, in data set [2], the “Log Pow” value was 4.25.
Consider `C=CC[C@@H]1/C=C(\C)C[C@H](C)C[C@H](OC)[C@H]2O[C@@](O)(C(=O)C(=O)N3CCCC[C@H]3C(=O)O[C@H](/C(C)=C/[C@@H]3CC[C@@H](O)[C@H](OC)C3)[C@H](C)[C@@H](O)CC1=O)[C@H](C)C[C@@H]2OC` [tacrolimus], for which, in data set [2], the “Log Pow” value is recorded as 4.79.
Turning to `COC(=O)C1=C(C)NC(C)=C(C(=O)OC2CCCN(Cc3ccccc3)C2)C1c1cccc([N+](=O)[O-])c1` (stereo not shown) [benidipine], the “Log Pow” value in data set [2] was 5.56.
Consider `CC(C)(C)c1ccc(C(=O)CCCN2CCC(OC(c3ccccc3)c3ccccc3)CC2)cc1` [ebastine], for which, in data set [2], the “Log Pow” value was 6.81.
For the compound `CCCCC/C=C\C/C=C\CCCCCCCC(=O)OCCN1CCN(CCSSCCN2CCN(CCOC(=O)CCCCCCC/C=C\C/C=C\CCCCC)CC2)CC1` [L-PZ4C2], in data set [1] (setting [3]), the PdI worked out at 0.092. In data set [1] (setting [4]), this compound came in with a volume median diameter of 75.8 nm.
For the compound `C=C1CC[C@H](O)C/C1=C/C=C1\CCC[C@]2(C)[C@@H]([C@H](C)CCCC(C)C)CC[C@@H]12` [cholecalciferol], the “Log Pow” value in data set [2] was 9.08.
With `CCCCCCCCCCCCCCCC(=O)Oc1ccc2c(C)cc(=O)oc2c1` [4-methylumbelliferone palmitate], the “Log Pow” value in data set [2] is given as 7.92.
`O=C(COCCOCCOCC(=O)Nc1c(I)cc(I)c(C(=O)O)c1I)Nc1c(I)cc(I)c(C(=O)O)c1I` [iotroxatic acid]: the “Log Pow” value in data set [2] was 4.32.
Regarding `CCCCCCCC/C=C\CCCCCCCC(=O)OC[C@H](COP(=O)(O)OCCN)OC(=O)CCCCCCC/C=C\CCCCCCCC` [DOPE, dioleoylphosphatidylethanolamine], the volume median diameter in data set [1] (B-2:helper lipid:Cholesterol=3:4:3, 15 mol % DMG-PEG2000, malic acid buffer pH 4.0) is 90.2 nm. For the same compound, the PdI in data set [1] (B-2:helper lipid:Cholesterol=3:4:3, 15 mol % DMG-PEG2000, pH 3.0) turned out to be 0.191; in data set [1] (B-2:helper lipid:Cholesterol=3:4:3, 15 mol % DMG-PEG2000, pH 4.0), 0.078.
`C#C[C@]1(O)CC[C@H]2[C@@H]3CCC4=Cc5oncc5C[C@]4(C)[C@H]3CC[C@@]21C` [danazol]: the “Log Pow” value in data set [2] is given as 4.94.
Regarding `C#C[C@]1(O)CC[C@H]2[C@@H]3CCc4cc(OC)ccc4[C@H]3CC[C@@]21C` [mestranol], the “Log Pow” value in data set [2] is 4.94.
Consider `COc1ccc2c(c1)c(CC(=O)O)c(C)n2C(=O)c1ccc(Cl)cc1` [indomethacin], for which the “Log Pow” value in data set [2] is recorded as 4.25.
As for `Cc1cccc(Nc2ccccc2C(=O)O)c1C` [mefenamic acid], the “Log Pow” value in data set [2] is 4.83.
In the case of `CC(C)=CCC/C(C)=C/CC/C(C)=C/CC/C(C)=C/CC1=C(C)C(=O)c2ccccc2C1=O` [menatetrenone], the “Log Pow” value in data set [2] is listed as 8.79.
Consider `CCCC(=O)OC[C@@H](OC(=O)CCC)[C@@H](OC(=O)CCC)[C@H](Cn1c2nc(=O)[nH]c(=O)c-2nc2cc(C)c(C)cc21)OC(=O)CCC` [riboflavin butyrate], for which the “Log Pow” value in data set [2] is listed as 6.25.
As for `COc1ccc2c(c1)c(CC(=O)OCC(=O)O)c(C)n2C(=O)c1ccc(Cl)cc1` [acemetacin], in data set [2], the “Log Pow” value is listed as 4.49.
Take `COC1(O[C@H]2CC[C@H]3[C@@H]4CC[C@H]5C[C@@H]6S[C@@H]6C[C@]5(C)[C@H]4CC[C@]23C)CCCC1` [mepitiostane]: the “Log Pow” value in data set [2] is on record as 6.89.
Regarding `O=c1[nH]c2ccccc2n1C1CCN(CCCC(c2ccc(F)cc2)c2ccc(F)cc2)CC1` [pimozide], the “Log Pow” value in data set [2] is recorded as 5.76.
As for `[H]/N=C(\N/C(=N/[H])NCCCCCCNC(=N)NC(=N)Nc1ccc(Cl)cc1)Nc1ccc(Cl)cc1` [chlorhexidine], in data set [2], the “Log Pow” value is reported as 4.58.
Turning to `CC(C)Oc1ccc2c(=O)c(-c3ccccc3)coc2c1` [ipriflavone], the “Log Pow” value in data set [2] is 4.25.
As to `CCOc1nc2cccc(C(=O)OC(C)OC(=O)OC3CCCCC3)c2n1Cc1ccc(-c2ccccc2-c2nnn[nH]2)cc1` (stereo not shown) [candesartancilexetil], the “Log Pow” value in data set [2] is 7.21.
In the case of `CCCCCCC(=O)OCCN1CCN(CCCN2c3ccccc3Sc3ccc(C(F)(F)F)cc32)CC1` [fluphenazine enanthate], in data set [2], the “Log Pow” value is 7.29.
Turning to `CCC(C)n1ncn(-c2ccc(N3CCN(c4ccc(OCC5COC(Cn6cncn6)(c6ccc(Cl)cc6Cl)O5)cc4)CC3)cc2)c1=O` (stereo not shown) [itraconazole], in data set [2], the “Log Pow” value is given as 5.00.
As to `CC1=C(C/C=C(\C)CCC[C@H](C)CCC[C@H](C)CCCC(C)C)C(=O)c2ccccc2C1=O` [phytonadione], the “Log Pow” value in data set [2] is 10.31.
Regarding `C[C@H](CCC(=O)O)[C@H]1CC[C@H]2[C@@H]3[C@@H](O)C[C@@H]4C[C@H](O)CC[C@]4(C)[C@H]3CC[C@]12C` [ursodeoxycholic acid], the “Log Pow” value in data set [2] was 4.76.
Regarding `C#C[C@]1(O)CC[C@H]2[C@@H]3CCc4cc(O)ccc4[C@H]3CC[C@@]21C` [ethinylestradiol], in data set [2], the “Log Pow” value is 4.11.
For the compound `Cc1cc(O)c2c(c1)O[C@@]1(C)CC[C@H]3C(C)(C)CCC[C@]34CO[C@@H]2[C@H]41` [siccanin], the “Log Pow” value in data set [2] is 6.10.
Take tocopherol: the “Log Pow” value in data set [2] is 10.96.
As for `c1ccc2c(c1)Sc1ccccc1N2CC1CN2CCC1CC2` (stereo not shown) [mequitazine], in data set [2], the “Log Pow” value is 5.20.
For the compound `CC(=O)Oc1c(C)c(C)c2c(c1C)CCC(C)(CCC[C@H](C)CCC[C@H](C)CCCC(C)C)O2` (stereo partly shown) [tocopheryl acetate], the “Log Pow” value in data set [2] is reported as 10.69.
On to `CCC(=O)OCC(=O)[C@@]1(OC(=O)CC)[C@@H](C)C[C@H]2[C@@H]3CCC4=CC(=O)C=C[C@]4(C)[C@@]3(Cl)[C@@H](O)C[C@@]21C` [beclopetasone propionate], for which the “Log Pow” value in data set [2] was 4.07.
As to `CCc1oc2ccccc2c1C(=O)c1cc(Br)c(O)c(Br)c1` [benzbromarone], in data set [2], the “Log Pow” value was 6.65.
On to `C=C1CC[C@H](O)C/C1=C/C=C1\CCC[C@]2(C)[C@@H]([C@H](C)/C=C/[C@H](C)C(C)C)CC[C@@H]12` [ergocalciferol], for which, in data set [2], the “Log Pow” value was 9.15.
In the case of `CCCCC(=O)O[C@]1(C(=O)CO)[C@@H](C)C[C@H]2[C@@H]3CCC4=CC(=O)C=C[C@]4(C)[C@@]3(F)[C@@H](O)C[C@@]21C` [betamethasone valerate], the “Log Pow” value in data set [2] is 4.14.
Turning to retinol acetate, in data set [2], the “Log Pow” value is 7.19.
For the compound `COC1=C(OC)C(=O)C(C/C=C(\C)CC/C=C(\C)CC/C=C(\C)CC/C=C(\C)CC/C=C(\C)CC/C=C(\C)CC/C=C(\C)CC/C=C(\C)CC/C=C(\C)CCC=C(C)C)=C(C)C1=O` [ubidecarenone], the “Log Pow” value in data set [2] is 19.12.
In the case of `CCCCCCCCCCCCCCCC(=O)OC/C=C(C)/C=C/C=C(C)/C=C/C1=C(C)CCCC1(C)C` [retinol palmitate], the “Log Pow” value in data set [2] is 14.32.
As for `COc1ccccc1OCCNCC(O)COc1cccc2[nH]c3ccccc3c12` (stereo not shown) [carvedilol], in data set [2], the “Log Pow” value is 4.07.
For `Cc1cccc(N(C)C(=S)Oc2ccc3ccccc3c2)c1` [tolnaftate], the “Log Pow” value in data set [2] is on record as 5.14.
